According to patent publication US20050203482A1, “Pharmaceutical dispensing apparatus and method” (priority 2004, published 2005):
Converted amounts (≈) assume the structure as drawn.

Assay: physchem
Excerpt: The solvents and co-solvents are listed by percentage of volume.

C[C@H]1O[C@@H](O[C@H]2[C@@H](O)C[C@H](O[C@H]3[C@@H](O)C[C@H](O[C@H]4CC[C@@]5(C)[C@H](CC[C@@H]6[C@@H]5C[C@@H](O)[C@]5(C)[C@@H](C7=CC(=O)OC7)CC[C@]65O)C4)O[C@@H]3C)O[C@@H]2C)C[C@H](O)[C@@H]1O [Digoxin]
solubility (aqueous with cosolvent or surfactant or cyclodextrin, solvent 2-P 56%, co-solvent Water 44%, approximate): 56 mg/mL (≈ 71.7 mM) | solubility (aqueous with cosolvent or surfactant or cyclodextrin, solvent 55% Water, co-solvent 45% H-107, approximate): 52 mg/mL (≈ 66.6 mM) | solubility (aqueous with cosolvent or surfactant or cyclodextrin, solvent Ethanol 80%, co-solvent Water 17%, additive Glycerin 3%, approximate): 9 mg/mL (≈ 11.5 mM) | solubility (organic solvent or mixture, solvent 1,5-pentanediol, approximate): < 21.9 mg/mL | solubility (organic solvent or mixture, solvent 2-P 80%, co-solvent Ethanol 20%, approximate): ≥ 75 mg/mL | solubility (organic solvent or mixture, solvent 2-P 100%, approximate): 102 mg/mL (≈ 131 mM) | solubility (organic solvent or mixture, solvent Acetone, approximate): < 30 mg/mL | solubility (organic solvent or mixture, solvent DMSO 80%, co-solvent (EtOH) ethanol alcohol 20%, approximate): 200 mg/mL (≈ 256 mM) | solubility (organic solvent or mixture, solvent Ethanol 100%, approximate): 9 mg/mL (≈ 11.5 mM) | solubility (organic solvent or mixture, solvent Ethyl acetate, approximate): < 16.3 mg/mL | solubility (organic solvent or mixture, solvent Ethylene glycol (LEG), approximate): < 16.3 mg/mL | solubility (organic solvent or mixture, solvent Glycerine, approximate): < 14.2 mg/mL | solubility (organic solvent or mixture, solvent Polyethylene glycol 400 90% Absolute ethanol 6%, co-solvent Water 1%, additive Propylene glycol 3%, approximate): 0.25 mg/mL (≈ 0.32 mM) | solubility (organic solvent or mixture, solvent Polyethylene glycols (PEGs), approximate): < 19.3 mg/mL | solubility (water, solvent Water, approximate): 0.024 to 0.07 mg/mL (≈ 0.0307 to 0.0896 mM)
